Experimental data as given in US6267962A, “Compositions and methods of treatment using peat derivatives” (C-P Technology Limited Partnership, priority 1997, dated 2001).

Tested on: psoriasis
Test: Psoriasis, patients 32 and 33
Format: in vivo, human
Details: patient 32; fluocinonide alone on other elbow
Text: Patient 32 had suffered from psoriasis on their arms and elbows for over 10 years. A 10-30 Kd peat preparation was applied to one elbow twice daily for approximately nine months, with the occasional simultaneous application of fluocinonide cream. Fluocinonide cream alone was used on the other elbow.
Patient 33 had psoriasis that seemed to only manifest itself after an occurrence of strep throat. Their only successful treatment had been with chemotherapeutic agents.

## CC(=O)OCC(=O)[C@@]12OC(C)(C)O[C@@H]1C[C@H]1[C@@H]3C[C@H](F)C4=CC(=O)C=C[C@]4(C)[C@@]3(F)[C@@H](O)C[C@@]12C [fluocinonide]
  psoriasis of elbow, skin lesions: no decrease in the skin lesions
